From article PMC12257394, “Design, Synthesis, and Biological Evaluation of Ferrocenyl–Cyclo-(Gly‑L‑Pro) Hybrids Sensitizing Multidrug-Resistant Cancer Cells to Anticancer Agents” (ACS Medicinal Chemistry Letters, 2025)

Key:
Assay type in all cases: cell-based, human
[1] = Neutral red uptake viability assay, SW620M; settings: human, SW620M cells (methotrexate-resistant), 72 h, n = 3, read-out: Cytotoxic activity IC50 (95% CI)
Procedure: (§1) In general, compounds 4a–e exerted little or no cytotoxic effect on either SW620 or multidrug-resistant sublines even at 10 μM, with the remarkable exception of SW620C (cisplatin-selected variant of SW620) cells, which turned out to be relatively susceptible toward ferrocenyl 4a–c. […] This trend may reflect steric or electronic contributions to cellular uptake or interaction with intracellular targets. […] However, since E/Z isomeric data are currently available only for compound 4c, this hypothesis requires validation. To quantify this effect, IC50 values were determined (Table ). […]
(§2) The normal lung fibroblast MRC-5 and colorectal adenocarcinoma SW620 cell lines used in this experiment were purchased from American Type Culture Collection (USA) via LGC […]
(§3) Standards. Multidrug-resistant variants of SW620 cells were developed in our laboratory as described previously.10, 11 All cells were cultured under standard conditions (37°C, 5% CO2, 100% humidity) in high-glucose DMEM supplemented with GlutaMaxTM, HEPES (ThermoFisher Scientific, USA), and 10% fetal bovine serum (EURx, Poland). Cells were routinely tested for potential Mycoplasma contamination using the MycoProbe Mycoplasma Detection kit (R&D System, USA).
(§4) In total, 104 cells in 100 µL of complete medium were plated per well of a 96-well plate and left overnight to allow cells to adhere to the surface. Then, the cells were exposed to a desired concentration of tested compound(s). Stock solutions were prepared in DMSO and used immediately. The final DMSO concentration was constant and nontoxic (0.1% v/v). After 70-h incubation, neutral red was added to the final concentration of 1 mM. After another 2 h, the medium was aspirated, and cells were washed twice with PBS. Dye was released using 100 µL of a solubilizer (1% acetic acid in 50% ethanol) on an orbital shaker (10 min). Absorbance was read at 540 nm using EnVision Multilabel Plate Reader (Perkin Elmer, USA). Results were expressed as % of control. The IC50 parameters were calculated using GraphPad Prism version 10 (GraphPad Software, Boston, Massachusetts USA). […]
(§5) All experiments were performed in triplicate (n = 3).

[2] = Neutral red uptake viability assay, SW620E; settings: human, SW620E cells (etoposide-resistant), 72 h, n = 3, read-out: Cytotoxic activity IC50 (95% CI)
Procedure: as §1, with “To evaluate this aspect, we investigated the viability of SW620 colon cancer cells and their multidrug-resistant variants (overexpressing ABCB1, ABCC1, and ABCG2) exposed to 1 and 10 μM 4a–e using a neutral red uptake assay (Table ). In” for “In”
as §2, §3, §4, §5

[3] = Neutral red uptake viability assay, SW620D; settings: human, SW620D cells (doxorubicin-resistant), 72 h, n = 3, read-out: Cytotoxic activity IC50 (95% CI)
Procedure: as §1, §2, §3
In total, 104 cells in 100 µL of complete medium were plated per well of a 96-well plate and left overnight to allow cells to adhere to the surface. Then, the cells were exposed to a desired concentration of tested compound(s). Stock solutions were prepared in DMSO and used immediately. The final DMSO concentration was constant and nontoxic (0.1% v/v). After 70-h incubation, neutral red was added to the final concentration of 1 mM. After another 2 h, the medium was aspirated, and cells were washed twice with PBS. Dye was released using 100 µL of a solubilizer (1% acetic acid in 50% ethanol) on an orbital shaker (10 min). Absorbance was read at 540 nm using EnVision Multilabel Plate Reader (Perkin Elmer, USA). Results were expressed as % of control. The IC50 parameters were calculated using GraphPad Prism version 10 (GraphPad Software, Boston, Massachusetts USA).
The enhancement of reversal potency (ERP) value determination
For MDR reversal assays, cytotoxic agents were co-administered with compounds 4a–4e at equimolar concentrations in a range of 10 nM to 100 µM. IC₅₀ values were determined in ABCB1-overexpressing SW620 cell line variants. The enhancement of reversal potency (ERP) was calculated using the following formula: ERP = IC₅₀(drug)MDR / IC₅₀(drug + compound)MDR. All experiments were performed in triplicate (n = 3).

Measured: IC50 at 72 h

O=C1N/C(=C\c2ccccc2)C(=O)N2CCC[C@@H]12 [(S,Z)-4e]
> 100 µM: all assays above

O=C1N/C(=C/c2ccccc2)C(=O)N2CCC[C@@H]12 [(S,E)-4e]
> 100 µM: all assays above
